Assays:
[1] = Compatibility with oils: chemical and physical stability of 2.5% formulations, 3 months RT and 40° C.; type: physicochemical
Method: To assess the possibility of a cream formulation that restores the cutaneous barrier, the compatibility of Isopropylcarbonate Benzoyl Peroxide with oils was assessed.
Further the chemical and physical stabilities of the formulations containing 2.5% Isopropylcarbonate Benzoyl Peroxide with various oils were assessed after storage at 3 months RT and 40° C. The value of 2.5% was chosen in order to allow for comparisons to an equivalent formulation containing 2.5% benzoyl peroxide instead of 2.5% Isopropylcarbonate Benzoyl Peroxide.

[2] = Maximum solubility in non-volatile part of vehicle gel and in reconstituted sebum; type: physicochemical; details: for maximum solubility, TA reconstituted liquid sebum (22 H) / maximum solubility, TA reconstituted liquid sebum (extemporaneous): liquid fraction of the reconstituted sebum; for maximum solubility, TA reconstituted liquid sebum (22 H) / maximum solubility, TA non-volatile (22 H) / maximum solubility, Liquid sebum reconstituted at 32° C. (22 H): 22 H agitation; for maximum solubility, TA non-volatile (22 H): non-volatile part of the Composition A vehicle gel
Source text: In the case of active principles in dispersed form, these can dissolve after application, either in the sebum or in the non-volatile part of the formulation. […] (22 H agitation)

[3] = series with and without TiO2
[4] = Compatibility of additives (keratolytic agents, opacifying agents) with 1% CD08467 gel based composition 0347.1000; type: physicochemical; details: for Notes (reason of incompatibility): Table 6, keratolytic additive in gel 0347.1000; for compatibility of keratolytic agents: summary of Table 6
Method: For this study, the following gel based composition was tested:
The following keratolytic agents were tested with the gel based composition indicated above:
The goal of using an opacifier is to mainly “mask” the evolution of the orange-brown color that appears over time either or the orange color present from T0. […] The chemical and physical stabilities were evaluated over 3 months at RT and 40° C.
The following opacifying agents were tested with the gel based composition indicated above: […]

[5] = Maximum solubility of Isopropylcarbonate Benzoyl Peroxide in oils; type: physicochemical
Method: First, the maximum solubilities of Isopropylcarbonate Benzoyl Peroxide in various oils was assessed in the following table.

[6] = in COS SILKFLO ® 366 (POLYDECENE, Non-polar)
[7] = in ISOSTEARYL ISOSTEARATE (Average polarity)
[8] = in PARLEAM ® (HYDROGENATED POLYISOBUTENE, Non-polar)
[9] = in PRIMOL ™ 352 (MINERAL OIL, Non-polar)
[10] = in SILICON FLUID 20CST (POLYDIMETHYLSILOXANE, Average polarity)
[11] = in ST-CYCLOMETHICONE 5 NF (Average polarity)

SMILES: CC(C)CCCC(C)CCCC(C)CCCCC(C)CCCC(C)CCCC(C)C (centres unmarked) [SQUALANE PE]
- compatibility of Isopropylcarbonate Benzoyl Peroxide with oils ([1]; Table 8): compatible

SMILES: O=C(OOC(=O)c1ccccc1)c1ccccc1 [BPO, benzoyl peroxide]
- maximum solubility, TA reconstituted liquid sebum (22 H) [2]: 1.4%
- maximum solubility, TA reconstituted liquid sebum (extemporaneous) [2]: 1.1%
- maximum solubility, TA non-volatile (22 H) [2]: 0.35%
- maximum solubility, Liquid sebum reconstituted at 32° C. (22 H) [2]: 1.8%

SMILES: O=C([O-])CN(CCN(CC(=O)[O-])CC(=O)O)CC(=O)O.[Na+].[Na+] [disodium EDTA, disodium ethylenediaminetetraacetic acid (EDTA)]
- effect of component on stability of the formulation [3]: counter the chemically instability

SMILES: O=C(O)c1ccccc1O [SALICYLIC ACID]
- Notes (reason of incompatibility) [4]: Fall in value 1 m

SMILES: O=C(O)CC(O)C(=O)O (centres unmarked) [MALIC ACID]
- compatibility of keratolytic agents [4]: compatible

SMILES: C[Si]1(C)O[Si](C)(C)O[Si](C)(C)O[Si](C)(C)O[Si](C)(C)O1 [ST-CYCLOMETHICONE 5 NF, CYCLOMETHICONE 5]
- Notes ([1]; Table 8, comparison with equivalent 2.5% benzoyl peroxide formulation): Intense orange coloration

SMILES: O=P(O)(O)O[C@H]1[C@H](OP(=O)(O)O)[C@@H](OP(=O)(O)O)[C@H](OP(=O)(O)O)[C@@H](OP(=O)(O)O)[C@H]1OP(=O)(O)O [PHYTIC ACID]
- compatibility of keratolytic agents [4]: compatible

SMILES: NCCCC[C@H](N)C(=O)O [L-LYSINE]
- Notes (reason of incompatibility) [4]: Strong coloration

SMILES: CC(O)C(=O)O (centres unmarked) [LACTIC ACID]
- compatibility of keratolytic agents [4]: compatible

SMILES: CC(C)OC(=O)Oc1ccccc1C(=O)OOC(=O)c1ccccc1 [CD08467]
- % Max. Solution [5, 6]: 0.1498%
- % max sol. visual [5, 6]: 0.18%
- % Max. Solution [5, 7]: 0.8679%
- % max sol. visual [5, 7]: 1.39%
- % Max. Solution [5, 8]: 0.1862%
- % max sol. visual [5, 8]: 0.50%
- % Max. Solution [5, 9]: 0.1867%
- % max sol. visual [5, 9]: 0.41%
- % Max. Solution [5, 10]: 0.0735%
- % max sol. visual [5, 10]: 0.18%
- % Max. Solution ([5]; in SQUALANE PE (Non-polar)): 0.1781%
- % max sol. visual ([5]; in SQUALANE PE (Non-polar)): 0.18%
- % Max. Solution [5, 11]: 0.1253%
- % max sol. visual [5, 11]: 0.33%
- % Max. Solution ([5]; in WATER (Polar)): Not measurable
- % Max. Solution ([5]; meadowfoam seed oil): 1.2925%
- % max sol. visual ([5]; meadowfoam seed oil): 1.96%
- maximum solubility, TA reconstituted liquid sebum (22 H) [2]: 1.6%
- maximum solubility, TA reconstituted liquid sebum (extemporaneous) [2]: 0.25%
- maximum solubility, TA non-volatile (22 H) [2]: 0.25%
- maximum solubility, Liquid sebum reconstituted at 32° C. (22 H) [2]: 1.6%

SMILES: O=C(O)CO [GLYCOLIC ACID]
- Notes (reason of incompatibility) [4]: Fall in value 1 m
- compatibility of keratolytic agents [4]: compatible

Reference: patent US20220023250A1, “ISOPROPYLCARBONATE BENZOYL PEROXIDE COMPOSITIONS AND METHODS OF USE” (Galderma Holding SA, priority 2019, published 2022)
